Results as given in ChEMBL document CHEMBL4507289, “Data for DCP probe GSM1” (2021).

Assays:
[1] = molecular target: Serine/threonine-protein kinase PLK1 (Homo sapiens) (UniProt P53350); details: Compound concentration 1000.0 nM
[2] = molecular target: Serine/threonine-protein kinase MARK1 (Homo sapiens) (UniProt Q9P0L2); details: Compound concentration 1000.0 nM
[3] = molecular target: Serine/threonine-protein kinase TAO3 (Homo sapiens) (UniProt Q9H2K8); details: Compound concentration 1000.0 nM
[4] = molecular target: Mitogen-activated protein kinase kinase kinase 1 (Homo sapiens) (UniProt Q13233); details: Compound concentration 1000.0 nM
[5] = molecular target: Tyrosine-protein kinase receptor Tie-1 (Homo sapiens) (UniProt P35590); details: Compound concentration 1000.0 nM
[6] = molecular target: AP2-associated protein kinase 1 (Homo sapiens) (UniProt Q2M2I8); details: Compound concentration 1000.0 nM
[7] = molecular target: Serine/threonine-protein kinase D2 (Homo sapiens) (UniProt Q9BZL6); details: Compound concentration 1000.0 nM
[8] = molecular target: SRSF protein kinase 2 (Homo sapiens) (UniProt P78362); details: Compound concentration 1000.0 nM
[9] = molecular target: Tyrosine-protein kinase Lck (Homo sapiens) (UniProt P06239); details: Compound concentration 1000.0 nM
[10] = molecular target: Cyclin-dependent kinase 2 homolog (Plasmodium falciparum (isolate 3D7)) (UniProt P61075); details: Compound concentration 1000.0 nM
[11] = molecular target: Serine/threonine-protein kinase Nek4 (Homo sapiens) (UniProt P51957); details: Compound concentration 1000.0 nM
[12] = molecular target: Mitogen-activated protein kinase kinase kinase 11 (Homo sapiens) (UniProt Q16584); details: Compound concentration 1000.0 nM
[13] = molecular target: Serine/threonine-protein kinase PAK 5 (Homo sapiens) (UniProt Q9P286); details: Compound concentration 1000.0 nM
[14] = molecular target: Dual specificity testis-specific protein kinase 1 (Homo sapiens) (UniProt Q15569); details: Compound concentration 1000.0 nM
[15] = molecular target: RAF proto-oncogene serine/threonine-protein kinase (Homo sapiens) (UniProt P04049); details: Compound concentration 1000.0 nM
[16] = test system: eIF-2-alpha kinase GCN2 (Homo sapiens), Q9P2K8 [S808G]; details: Compound concentration 1000.0 nM
[17] = molecular target: Tyrosine-protein kinase JAK3 (Homo sapiens) (UniProt P52333); details: Compound concentration 1000.0 nM
Rattus norvegicus = species: Rattus norvegicus; details: Compound concentration 10.0 uM
[18] = molecular target: Vascular endothelial growth factor receptor 2 (Homo sapiens) (UniProt P35968); details: Compound concentration 1000.0 nM
[19] = molecular target: Phosphatidylinositol 4-phosphate 3-kinase C2 domain-containing subunit beta (Homo sapiens) (UniProt O00750); details: Compound concentration 1000.0 nM
[20] = molecular target: Interferon-induced, double-stranded RNA-activated protein kinase (Homo sapiens) (UniProt P19525); details: Compound concentration 1000.0 nM
[21] = molecular target: LIM domain kinase 1 (Homo sapiens) (UniProt P53667); details: Compound concentration 1000.0 nM
[22] = molecular target: Serine/threonine-protein kinase LATS2 (Homo sapiens) (UniProt Q9NRM7); details: Compound concentration 1000.0 nM
[23] = molecular target: Cyclin-dependent kinase 13 (Homo sapiens) (UniProt Q14004); details: Compound concentration 1000.0 nM
[24] = molecular target: Serine/threonine-protein kinase SBK1 (Homo sapiens) (UniProt Q52WX2); details: Compound concentration 1000.0 nM
[25] = molecular target: Megakaryocyte-associated tyrosine-protein kinase (Homo sapiens) (UniProt P42679); details: Compound concentration 1000.0 nM
[26] = molecular target: MAP kinase-interacting serine/threonine-protein kinase 2 (Homo sapiens) (UniProt Q9HBH9); details: Compound concentration 1000.0 nM
[27] = molecular target: Cyclin-dependent kinase 3 (Homo sapiens) (UniProt Q00526); details: Compound concentration 1000.0 nM
[28] = molecular target: Dual specificity mitogen-activated protein kinase kinase 4 (Homo sapiens) (UniProt P45985); details: Compound concentration 1000.0 nM
[29] = molecular target: Non-receptor tyrosine-protein kinase TNK1 (Homo sapiens) (UniProt Q13470); details: Compound concentration 1000.0 nM
[30] = molecular target: Sodium-dependent dopamine transporter (Homo sapiens, UniProt Q01959); details: Compound concentration 10.0 uM
[31] = molecular target: Tyrosine-protein kinase FRK (Homo sapiens) (UniProt P42685); details: Compound concentration 1000.0 nM
[32] = molecular target: Mitogen-activated protein kinase 8 (Homo sapiens) (UniProt P45983); details: Compound concentration 1000.0 nM
[33] = molecular target: Ephrin type-A receptor 1 (Homo sapiens) (UniProt P21709); details: Compound concentration 1000.0 nM
[34] = molecular target: Bone morphogenetic protein receptor type-2 (Homo sapiens) (UniProt Q13873); details: Compound concentration 1000.0 nM
[35] = molecular target: cAMP-dependent protein kinase catalytic subunit beta (Homo sapiens) (UniProt P22694); details: Compound concentration 1000.0 nM
[36] = molecular target: Protein kinase C epsilon type (Homo sapiens) (UniProt Q02156); details: Compound concentration 1000.0 nM
[37] = molecular target: Tyrosine-protein kinase Fyn (Homo sapiens) (UniProt P06241); details: Compound concentration 1000.0 nM
[38] = molecular target: Serine/threonine-protein kinase PAK 2 (Homo sapiens) (UniProt Q13177); details: Compound concentration 1000.0 nM
[39] = molecular target: Serine/threonine-protein kinase 32B (Homo sapiens) (UniProt Q9NY57); details: Compound concentration 1000.0 nM
[40] = molecular target: Membrane-associated tyrosine- and threonine-specific cdc2-inhibitory kinase (Homo sapiens) (UniProt Q99640); details: Compound concentration 1000.0 nM
[41] = molecular target: Tyrosine-protein kinase Lyn (Homo sapiens) (UniProt P07948); details: Compound concentration 1000.0 nM
[42] = molecular target: Ribosomal protein S6 kinase alpha-5 (Homo sapiens) (UniProt O75582); details: Compound concentration 1000.0 nM
[43] = molecular target: Serine/threonine-protein kinase N2 (Homo sapiens) (UniProt Q16513); details: Compound concentration 1000.0 nM
[44] = molecular target: Phosphatidylinositol 3-kinase C2 domain-containing subunit gamma (Homo sapiens) (UniProt O75747); details: Compound concentration 1000.0 nM

Chain of Ephrin type-A receptor 1 (Homo sapiens) (P21709 whole entry): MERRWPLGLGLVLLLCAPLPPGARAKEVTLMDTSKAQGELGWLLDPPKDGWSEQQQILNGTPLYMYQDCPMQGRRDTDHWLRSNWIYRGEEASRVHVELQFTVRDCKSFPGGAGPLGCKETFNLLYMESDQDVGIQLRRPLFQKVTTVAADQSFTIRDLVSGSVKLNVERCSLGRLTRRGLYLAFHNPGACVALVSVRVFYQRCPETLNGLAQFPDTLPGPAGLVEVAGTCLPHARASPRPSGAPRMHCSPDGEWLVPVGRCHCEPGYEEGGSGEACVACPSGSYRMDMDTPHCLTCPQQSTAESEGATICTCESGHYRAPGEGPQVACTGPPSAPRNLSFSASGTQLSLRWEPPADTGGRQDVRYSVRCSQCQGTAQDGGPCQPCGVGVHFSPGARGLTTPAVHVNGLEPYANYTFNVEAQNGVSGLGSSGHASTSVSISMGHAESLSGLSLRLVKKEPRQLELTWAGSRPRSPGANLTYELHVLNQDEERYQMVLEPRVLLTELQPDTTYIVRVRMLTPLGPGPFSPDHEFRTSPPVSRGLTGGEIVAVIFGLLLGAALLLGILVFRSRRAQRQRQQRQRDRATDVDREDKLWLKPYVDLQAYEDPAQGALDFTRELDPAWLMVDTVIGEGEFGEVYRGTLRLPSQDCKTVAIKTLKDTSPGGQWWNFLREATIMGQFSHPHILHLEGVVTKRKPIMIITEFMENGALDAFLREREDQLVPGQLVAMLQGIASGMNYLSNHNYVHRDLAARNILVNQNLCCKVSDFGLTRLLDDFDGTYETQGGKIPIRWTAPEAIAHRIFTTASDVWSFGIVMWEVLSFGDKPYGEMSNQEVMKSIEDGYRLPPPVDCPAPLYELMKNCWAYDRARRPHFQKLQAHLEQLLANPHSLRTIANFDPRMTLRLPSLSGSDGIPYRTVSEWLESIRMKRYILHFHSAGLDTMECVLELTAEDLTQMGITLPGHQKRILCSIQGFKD
Chain of Mitogen-activated protein kinase kinase kinase 1 (Homo sapiens) (Q13233 whole entry): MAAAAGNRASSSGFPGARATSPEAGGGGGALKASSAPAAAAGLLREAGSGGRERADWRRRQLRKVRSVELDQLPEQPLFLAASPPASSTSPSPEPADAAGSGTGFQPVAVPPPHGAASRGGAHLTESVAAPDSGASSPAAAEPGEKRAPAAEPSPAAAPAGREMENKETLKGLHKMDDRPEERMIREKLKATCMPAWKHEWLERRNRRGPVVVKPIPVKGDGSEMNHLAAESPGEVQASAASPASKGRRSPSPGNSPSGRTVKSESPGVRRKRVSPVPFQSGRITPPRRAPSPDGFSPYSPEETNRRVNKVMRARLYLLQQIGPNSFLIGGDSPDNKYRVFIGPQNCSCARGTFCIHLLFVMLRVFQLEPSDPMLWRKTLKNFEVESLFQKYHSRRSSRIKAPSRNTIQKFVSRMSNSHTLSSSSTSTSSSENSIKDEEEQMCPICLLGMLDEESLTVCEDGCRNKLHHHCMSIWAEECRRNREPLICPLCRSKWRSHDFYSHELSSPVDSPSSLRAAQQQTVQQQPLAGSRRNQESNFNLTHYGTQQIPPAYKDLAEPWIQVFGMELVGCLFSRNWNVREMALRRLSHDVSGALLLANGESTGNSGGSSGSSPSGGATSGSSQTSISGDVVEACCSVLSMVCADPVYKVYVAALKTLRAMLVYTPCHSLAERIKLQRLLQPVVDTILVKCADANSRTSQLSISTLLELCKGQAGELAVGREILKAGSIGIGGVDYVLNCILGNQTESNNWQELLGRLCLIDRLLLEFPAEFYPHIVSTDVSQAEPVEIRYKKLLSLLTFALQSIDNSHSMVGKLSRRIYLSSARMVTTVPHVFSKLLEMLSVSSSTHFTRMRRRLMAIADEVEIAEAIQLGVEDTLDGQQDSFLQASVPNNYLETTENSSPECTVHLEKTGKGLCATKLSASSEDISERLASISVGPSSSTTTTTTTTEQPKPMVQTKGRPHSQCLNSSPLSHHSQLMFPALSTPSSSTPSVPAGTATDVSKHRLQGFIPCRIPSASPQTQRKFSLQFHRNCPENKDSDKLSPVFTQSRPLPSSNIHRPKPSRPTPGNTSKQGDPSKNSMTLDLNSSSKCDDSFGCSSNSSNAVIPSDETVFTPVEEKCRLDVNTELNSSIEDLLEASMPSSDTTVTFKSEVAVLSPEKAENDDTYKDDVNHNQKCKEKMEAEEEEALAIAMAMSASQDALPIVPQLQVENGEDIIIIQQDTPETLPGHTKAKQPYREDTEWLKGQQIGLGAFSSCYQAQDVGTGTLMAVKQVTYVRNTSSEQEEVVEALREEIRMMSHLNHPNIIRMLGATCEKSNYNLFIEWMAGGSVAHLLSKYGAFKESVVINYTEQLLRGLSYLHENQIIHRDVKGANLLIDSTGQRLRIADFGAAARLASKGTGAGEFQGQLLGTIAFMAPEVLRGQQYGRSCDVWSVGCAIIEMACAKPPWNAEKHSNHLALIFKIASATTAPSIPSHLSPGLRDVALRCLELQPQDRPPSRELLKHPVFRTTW
Chain of Serine/threonine-protein kinase 32B (Homo sapiens) (Q9NY57 whole entry): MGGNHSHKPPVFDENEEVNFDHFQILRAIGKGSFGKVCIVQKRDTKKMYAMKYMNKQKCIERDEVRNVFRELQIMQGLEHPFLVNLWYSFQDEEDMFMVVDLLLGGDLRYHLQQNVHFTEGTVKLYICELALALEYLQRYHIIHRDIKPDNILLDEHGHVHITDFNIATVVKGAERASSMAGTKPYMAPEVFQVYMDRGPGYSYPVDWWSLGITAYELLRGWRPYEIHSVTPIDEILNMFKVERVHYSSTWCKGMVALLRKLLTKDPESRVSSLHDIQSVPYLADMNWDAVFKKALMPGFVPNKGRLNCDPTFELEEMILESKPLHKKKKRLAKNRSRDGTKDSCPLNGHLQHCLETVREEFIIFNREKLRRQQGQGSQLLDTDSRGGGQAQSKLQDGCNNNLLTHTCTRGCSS
Chain of Tyrosine-protein kinase Lyn (Homo sapiens) (P07948 2-512 limits assumed): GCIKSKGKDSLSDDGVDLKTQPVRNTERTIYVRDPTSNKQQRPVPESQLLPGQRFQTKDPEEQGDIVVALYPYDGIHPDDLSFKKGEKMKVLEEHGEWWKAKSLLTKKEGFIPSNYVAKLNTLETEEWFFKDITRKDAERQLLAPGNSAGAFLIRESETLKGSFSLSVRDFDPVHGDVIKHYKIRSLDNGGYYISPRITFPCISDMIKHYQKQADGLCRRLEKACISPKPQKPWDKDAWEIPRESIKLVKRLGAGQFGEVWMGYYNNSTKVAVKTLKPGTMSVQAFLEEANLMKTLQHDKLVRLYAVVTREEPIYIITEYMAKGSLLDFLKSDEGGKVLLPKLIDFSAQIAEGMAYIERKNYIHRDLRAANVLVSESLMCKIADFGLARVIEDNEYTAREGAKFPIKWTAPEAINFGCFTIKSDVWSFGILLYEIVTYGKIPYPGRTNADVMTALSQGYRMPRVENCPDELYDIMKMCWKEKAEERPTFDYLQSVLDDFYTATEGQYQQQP
Chain of Cyclin-dependent kinase 13 (Homo sapiens) (Q14004 whole entry, looked up): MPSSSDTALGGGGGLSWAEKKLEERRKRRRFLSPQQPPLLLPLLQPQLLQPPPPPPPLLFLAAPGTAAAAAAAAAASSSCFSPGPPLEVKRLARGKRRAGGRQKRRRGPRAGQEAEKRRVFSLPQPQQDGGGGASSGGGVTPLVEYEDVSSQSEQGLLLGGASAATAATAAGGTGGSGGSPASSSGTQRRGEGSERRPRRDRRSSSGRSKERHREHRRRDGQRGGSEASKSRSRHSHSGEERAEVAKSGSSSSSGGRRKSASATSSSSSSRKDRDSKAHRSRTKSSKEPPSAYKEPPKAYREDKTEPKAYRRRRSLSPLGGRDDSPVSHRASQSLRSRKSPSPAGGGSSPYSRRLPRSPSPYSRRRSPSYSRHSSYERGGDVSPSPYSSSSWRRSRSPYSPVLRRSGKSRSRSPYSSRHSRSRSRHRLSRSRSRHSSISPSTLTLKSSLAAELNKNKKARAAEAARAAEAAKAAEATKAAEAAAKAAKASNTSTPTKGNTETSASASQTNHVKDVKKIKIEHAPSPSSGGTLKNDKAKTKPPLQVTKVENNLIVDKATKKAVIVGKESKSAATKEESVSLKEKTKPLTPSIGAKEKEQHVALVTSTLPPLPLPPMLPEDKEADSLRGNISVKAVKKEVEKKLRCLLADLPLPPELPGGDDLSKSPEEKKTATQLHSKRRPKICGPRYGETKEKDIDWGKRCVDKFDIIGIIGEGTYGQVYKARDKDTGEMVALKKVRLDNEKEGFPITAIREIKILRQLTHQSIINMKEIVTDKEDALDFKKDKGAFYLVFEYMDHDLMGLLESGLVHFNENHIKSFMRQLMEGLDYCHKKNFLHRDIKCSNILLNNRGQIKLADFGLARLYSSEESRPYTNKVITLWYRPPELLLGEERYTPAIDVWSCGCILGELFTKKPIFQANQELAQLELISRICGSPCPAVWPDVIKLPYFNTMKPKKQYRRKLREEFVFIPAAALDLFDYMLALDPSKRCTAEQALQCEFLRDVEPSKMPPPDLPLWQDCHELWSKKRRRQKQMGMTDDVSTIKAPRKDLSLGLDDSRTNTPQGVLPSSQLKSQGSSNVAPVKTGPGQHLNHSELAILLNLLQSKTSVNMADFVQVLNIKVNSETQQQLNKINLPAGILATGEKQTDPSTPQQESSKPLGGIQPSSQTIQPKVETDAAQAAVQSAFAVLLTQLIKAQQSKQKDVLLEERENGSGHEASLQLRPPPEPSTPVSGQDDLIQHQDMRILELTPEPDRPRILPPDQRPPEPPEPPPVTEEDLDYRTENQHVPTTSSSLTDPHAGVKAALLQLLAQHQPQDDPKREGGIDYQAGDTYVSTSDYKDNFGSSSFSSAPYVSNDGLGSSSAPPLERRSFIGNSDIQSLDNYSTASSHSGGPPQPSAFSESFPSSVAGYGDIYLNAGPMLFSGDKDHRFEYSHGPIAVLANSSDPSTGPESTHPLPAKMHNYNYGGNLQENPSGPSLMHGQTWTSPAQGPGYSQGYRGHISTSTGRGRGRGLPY

Compound: COc1cc(-c2cn([C@H]3CCc4ccccc4N(CC(F)(F)F)C3=O)nn2)ccc1-n1ccc(C)n1
- residual activity [1]: 84%
- residual activity [2]: 99%
- residual activity [3]: 72%
- residual activity [4]: 72%
- residual activity [5]: 100%
- residual activity [6]: 100%
- residual activity [7]: 86%
- residual activity [8]: 81%
- residual activity [9]: 100%
- residual activity [10]: 100%
- residual activity [11]: 100%
- residual activity [12]: 100%
- residual activity [13]: 96%
- residual activity [14]: 93%
- residual activity [15]: 98%
- residual activity [16]: 100%
- residual activity [17]: 88%
- inhibition (Rattus norvegicus): 59.5%
- residual activity [18]: 79%
- residual activity [19]: 100%
- residual activity [20]: 87%
- residual activity [21]: 100%
- residual activity [22]: 69%
- residual activity [23]: 100%
- residual activity [24]: 94%
- residual activity [25]: 80%
- residual activity [26]: 66%
- residual activity [27]: 100%
- residual activity [28]: 100%
- residual activity [29]: 100%
- inhibition [30]: 5.21%
- residual activity [31]: 100%
- residual activity [32]: 55%
- residual activity [33]: 89%
- residual activity [34]: 100%
- residual activity [35]: 81%
- residual activity [36]: 100%
- residual activity [37]: 94%
- residual activity [38]: 100%
- residual activity [39]: 85%
- residual activity [40]: 100%
- residual activity [41]: 100%
- residual activity [42]: 74%
- residual activity [43]: 98%
- residual activity [44]: 65%

Compound: COc1cc(-c2cn([C@H]3CCc4c(F)cccc4N(CC(F)(F)F)C3=O)nn2)ccc1-n1cnc(C)c1
- residual activity [1]: 100%
- residual activity [2]: 100%
- residual activity [3]: 100%
- residual activity [4]: 100%
- residual activity [5]: 100%
- residual activity [6]: 100%
- residual activity [7]: 100%
- residual activity [8]: 100%
- residual activity [9]: 100%
- residual activity [10]: 100%
- residual activity [11]: 100%
- residual activity [12]: 100%
- residual activity [13]: 93%
- residual activity [14]: 100%
- residual activity [15]: 100%
- residual activity [16]: 100%
- residual activity [17]: 100%
- inhibition (Rattus norvegicus): 8.82%
- residual activity [18]: 100%
- residual activity [19]: 100%
- residual activity [20]: 100%
- residual activity [21]: 100%
- residual activity [22]: 100%
- residual activity [23]: 99%
- residual activity [24]: 94%
- residual activity [25]: 100%
- residual activity [26]: 76%
- residual activity [27]: 100%
- residual activity [28]: 93%
- residual activity [29]: 100%
- inhibition [30]: 99.7%
- residual activity [31]: 100%
- residual activity [32]: 52%
- residual activity [33]: 100%
- residual activity [34]: 100%
- residual activity [35]: 95%
- residual activity [36]: 100%
- residual activity [37]: 100%
- residual activity [38]: 91%
- residual activity [39]: 100%
- residual activity [40]: 100%
- residual activity [41]: 100%
- residual activity [42]: 100%
- residual activity [43]: 100%
- residual activity [44]: 72%
